Data published in US20240050409A1, “Methods and Compositions for Treating Psychotic Disorders” (SOUND PHARMACEUTICALS INCORPORATED, priority 2014, published 2024).
Entries after “also recorded” stand apart in the source; their conditions may differ.

Tested on: NVHL rats
Assay: Prepulse inhibition of the acoustic startle response (PPI) in NVHL rats
Format: in vivo, Sprague-Dawley rats
Settings: adult NVHL rats
Procedure: To assess whether juvenile oxidative stress leads to behavioral deficits, a behavioral paradigm was used for testing in both animal models and schizophrenia patients. Prepulse inhibition of the acoustic startle response (PPI) is a measure of sensorimotor gating that is reduced in patients (Geyer and Braff, 1987) and NVHL rats (Lipska et al., 1995). PPI was tested in adult sham (n=11), NAC-treated sham (n=12), NVHL (n=9), and NAC-treated NVHL rats (n=17). In addition to loss of PVI maturation and electrophysiological anomalies, developmental oxidative stress in juvenile NVHL rats can cause schizophrenia-relevant adult behavioral deficits.
The beneficial effect of NAC treatment includes a large postnatal treatment that starts prior to the lesion and stops once rats become young adults. For full translational value one determines whether NAC is efficacious when started at an age that corresponds to the time when prodromal stages can be identified in humans. In another set of rats, NAC was administered in the drinking water starting at P35, an age that in rats is equivalent to early adolescence. For PPI deficits was tested in adult SHAM (n=15), untreated NVHL (n=12), and NAC-treated NVHL rats (n=14).
Ebselen is a glutathione peroxidase (GPx) mimic (Muller et al., 1984) that induces GPx expression (Kil et al., 2007) and enhances GSH levels in neurons, replenishing GSH depleted by neurotoxic mechanisms (Pawlas and Malecki, 2007). PPI was tested in adult vehicle-treated SHAM (n=10), Ebselen-treated SHAM (n=7), vehicle-treated NVHL (n=8), and Ebselen-treated NVHL rats (n=9), and Ebselen treatment during adolescence reversed PPI deficits in NVHL rats (as shown in FIG. 15D).
In another group of rats, the effects of the NADPH oxidase inhibitor Apocynin was assessed while delivering through juvenile and adolescent stages. PPI was tested in adult vehicle-treated SHAM (n=10), apocynin-treated SHAM (n=11), vehicle treated NHVL (n=7), and apocynin-treated NVHL (n=5). As illustrated in FIG. 15C a reversal of PPI deficits was observed.
Antioxidant pretreatment regimen: NAC (BioAdvantexPharma, Mississauga, Ontario, Canada) was administered in the drinking water at 900 mg/l. NAC treatment started at P5 or at P35, and previous work in mice has shown that NAC consumed by the dam is transmitted to the pups through her milk (das Neves Duarte et al., 2012). NAC treatment ended at P50. Fresh solutions were prepared every 2-3 days. Ebselen (Sound Pharmaceuticals Inc., Seattle, WA) was administered i.p. 5 days a week starting at P35 until the day of PPI testing (P60). Stock ebselen solution (20 mg/ml DMSO, frozen aliquots) was diluted 1:5 in sterile water and administered at a dose of 10 mg/kg. Control animals received an equivalent concentration of DMSO diluted 1:5 in water. Apocynin (Sigma-Aldrich, St. Louis, MO) was administered in the drinking water at a target dose of 100 mg/kg (Nwokocha et al., 2013). Prior to weaning at P21, drinking water contained a dose of 2 g apocynin per 0.5 1 of water, to ensure delivery through the dam's milk. Apocynin concentration was lowered after weaning to 750 mg/1 to best approximate the target dose. Treatment lasted from P5 to P50 with fresh solutions prepared every other day.
Prepulse inhibition: Starting at P60, both male and female rats were tested for PPI, as described previously (Feleder et al., 2010). As PPI deficits in NVHL rats are most evident when rats are challenged with apomorphine (Lipska et al., 1995), we injected apomorphine (0.1 mg/kg, i.p.) immediately prior to the PPI test session. Rats were placed in a sound- attenuated startle chamber (San Diego Instruments, San Diego, CA) with a 70 dB background white noise. After a 5 min adaptation period, the PPI test was initiated with pseudorandom trials every 15 to 25 seconds. Either pulse (120 dB), prepulse (75 dB, 80 dB, or 85 dB), no pulse or prepulse +pulse were delivered. […]

## CC(=O)N[C@@H](CS)C(=O)O [NAC, N-acetyl cysteine]
Apomorphine 0.1 mg/kg i.p. challenge, juvenile treatment P5 to P50, drinking water
  effect on PPI deficit: prevented; also recorded: completely reversed
Adolescent treatment P35 to P50, drinking water, tested P61
  effect on PPI deficit: prevented
